Assay: Relaxometry of the particles (Bruker Minispec MQ60 NMR analyser, 1.4 T)
Type: physicochemical
Settings: at 50 MHz; gadolinium quantities measured by ICP
Protocol: The relaxivity r1 considered here is a relaxivity per M^n+ ion (for example gadolinium). r1 is found from the following formula: 1/T1=[1/T1]water+r1[M^n+] […]
Moreover, the relaxivity of the particles from Example 15 was measured by relaxometry, the actual quantities of gadolinium being measured by ICP, on a Varian 710-ES instrument.

O=C([O-])CN1CCN(CC(=O)[O-])CCN(CC(=O)[O-])CCN(CC(=O)[O-])CC1.[Gd+3] [Gd-DOTA]
relaxivity r1 (of the gadolinium species): 3.8 s^−1 mM^−1 (of gadolinium)^−1.s^−1
